This is an account of results in US20060069123A1, “Substituted dipiperidine CCR2 antagonists” (priority 2004, published 2006).

Like-named read-outs stand apart in the source and are kept apart here.

Test [1] concerns THP-1 cells. Put plainly: MCP-1 Induced Chemotaxis in THP-1 Cells. It is filed as cell-based. The following applies: read-out: Inhibition of MCP-1 Induced Chemotaxis IC50. Here is the method:
MCP-1 Induced Chemotaxis in THP-1 Cells
MCP-1 induced chemotaxis was run in a 24-well chemotaxis chamber. MCP-1 (0.01 μg/mL) was added to the lower chamber and 100 μL of THP-1 cells (1×10^7 cell/mL) was added to the top chamber. Varying concentrations of test compound were added to the top and bottom chambers. Cells were allowed to chemotax for 3 hours at 37° C. and 5% CO2. An aliquot of the cells that had migrated to the bottom chamber was taken and counted then compared to vehicle.

The test system of test [2] is THP-1 cells. Particulars: for inhibition at 25 µM: THP-1, read-out: Inhibition of MCP-1 Induced Calcium Ion Influx, percent inhibition.
Another test deals with T1, CCR2 (Homo sapiens, UniProt P41597).
T1 sequence (P41597 1-360 isoform P41597-2): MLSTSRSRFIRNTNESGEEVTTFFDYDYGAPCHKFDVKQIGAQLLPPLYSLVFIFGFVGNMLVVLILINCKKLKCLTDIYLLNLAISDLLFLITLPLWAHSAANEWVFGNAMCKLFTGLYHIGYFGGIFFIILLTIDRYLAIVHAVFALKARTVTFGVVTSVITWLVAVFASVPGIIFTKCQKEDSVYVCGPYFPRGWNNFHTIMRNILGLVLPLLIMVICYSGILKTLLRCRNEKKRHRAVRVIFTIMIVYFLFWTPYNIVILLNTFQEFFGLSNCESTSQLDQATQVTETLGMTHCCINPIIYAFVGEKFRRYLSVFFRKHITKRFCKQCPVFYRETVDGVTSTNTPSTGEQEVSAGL
Particulars: for Inhibition of MCP-1 Binding, percent inhibition: test concentration of 25 μM, IC50 not obtained.

The mark [3] stands for this setting: Homo sapiens, THP-1, read-out: Inhibition of MCP-1 Induced Calcium Ion Influx IC50.
[4] abbreviates: Homo sapiens, THP-1 cells, MCP-1 0.01 μg/mL, 3 hours.
Where [5] appears, read: THP-1 cells, MCP-1 0.01 μg/mL, 3 hours.
Setting [6] is: read-out: Inhibition of MCP-1 Induced Calcium Ion Influx IC50, THP-1 cells, 0.2 μM MCP-1, FLIPR.
The mark [7] stands for this setting: Homo sapiens, THP-1, read-out: Inhibition of MCP-1 Induced Calcium Ion Influx IC50, THP-1 cells, 0.2 μM MCP-1, FLIPR.

Broadly, the IC50 is the concentration that inhibits the measured activity by half. `O=C(O)[C@@H](C1CCN(C(=O)/C=C/c2cc(F)c(F)c(F)c2)CC1)N1CCC(c2c[nH]c3ccccc23)CC1` [Cpd 14]: the half-maximal inhibitory concentration (IC50) was 70 nM with THP-1 cells [1] (Homo sapiens, THP-1, 3 h) and 1130 nM in the test with THP-1 cells [2] (setting [3]).
On to `COC(=O)C(C1CCN(C(=O)/C=C/c2cc(F)c(F)c(F)c2)CC1)N1CCC(c2c[nH]c3ccccc23)CC1` (centres unmarked) [Cpd 87, [4-(1H-indol-3-yl)-piperidin-1-yl]-{1-[(2E)-3-(3,4,5-trifluoro-phenyl)-acryloyl]-piperidin-4-yl}-acetic acid methyl ester], for which the IC50 in the test with THP-1 cells [1] (Homo sapiens, THP-1, 3 h) is 1000 nM; in the test on THP-1 cells [2] (setting [3]), 360 nM.
Consider `O=C(O)C(C1CCN(C(=O)Nc2ccc(Cl)cc2)CC1)N1CCC(c2c[nH]c3ccccc23)CC1` (centres unmarked) [Cpd 88, [1-(4-chloro-phenylcarbamoyl)-piperidin-4-yl]-[4-(1H-indol-3-yl)-piperidin-1-yl]-acetic acid], for which the figures for the IC50 in the test on THP-1 cells [1] (setting [4]) and in the test with THP-1 cells [2] (setting [3]) were 240 nM and 410 nM, respectively.
As for `Cc1ccc(NC(=O)N2CCC(C(C(=O)O)N3CCC(c4c[nH]c5ccccc45)CC3)CC2)cc1C` (centres unmarked) [Cpd 100, [1-(3,4-dimethyl-phenylcarbamoyl)-piperidin-4-yl]-[4-(1H-indol-3-yl)-piperidin-1-yl]-acetic acid], the IC50 is 940 nM in the test on THP-1 cells [1] (Homo sapiens, THP-1, 3 h) and 480 nM in the test on THP-1 cells [2] (setting [3]).
Take `O=C(/C=C/c1cccc(C(F)(F)F)c1)N1CCC(C(CO)N2CCC(c3c[nH]c4ccccc34)CC2)CC1` (centres unmarked) [Cpd 119, (2E)-1-(4-{2-hydroxy-1-[4-(1H-indol-3-yl)-piperidin-1-yl]-ethyl}-piperidin-1-yl)-3-(3-trifluoromethyl-phenyl)-propenone]: the IC50 in the test with THP-1 cells [1] (setting [4]) is 10 nM; in the test with THP-1 cells [2] (setting [3]), 8 nM.
On to `OCC(C1CCN(C(=S)Nc2cccc(C(F)(F)F)c2)CC1)N1CCC(c2c[nH]c3ccccc23)CC1` (centres unmarked) [Cpd 120, 4-{2-hydroxy-1-[4-(1H-indol-3-yl)-piperidin-1-yl]-ethyl}-piperidine-1-carbothioic acid (3-trifluoromethyl-phenyl)-amide], for which the half-inhibitory concentration (IC50) was determined as 80 nM at CCR2 and 1 nM in the test with THP-1 cells [2] (setting [3]).
The corresponding values for `OCC(C1CCN(C(=S)Nc2ccc(Cl)c(Cl)c2)CC1)N1CCC(c2c[nH]c3ccccc23)CC1` (centres unmarked) [Cpd 122, 4-{2-hydroxy-1-[4-(1H-indol-3-yl)-piperidin-1-yl]-ethyl}-piperidine-1-carbothioic acid (3,4-dichloro-phenyl)-amide] are 40 nM and 0.8 nM.
Take `OCC(C1CCN(C(=S)Nc2cc(F)cc(F)c2)CC1)N1CCC(c2c[nH]c3ccccc23)CC1` (centres unmarked) [Cpd 124, 4-{2-hydroxy-1-[4-(1H-indol-3-yl)-piperidin-1-yl]-ethyl}-piperidine-1-carbothioic acid (3,5-difluoro-phenyl)-amide]: the figures for the IC50 against CCR2 and in the test on THP-1 cells [2] (setting [3]) were 130 nM and 70 nM, respectively.
Take `N=C(NC(=O)c1ccc(Cl)c(Cl)c1)N1CCC(C(CO)N2CCC(c3c[nH]c4ccccc34)CC2)CC1` (centres unmarked) [Cpd 128, 3,4-dichloro-N-[(4-{2-hydroxy-1-[4-(1H-indol-3-yl)-piperidin-1-yl]-ethyl}-piperidin-1-yl)-imino-methyl]-benzamide]: the IC50 against CCR2 was determined as 320 nM; with THP-1 cells [2] (setting [3]), 20 nM.
With `COc1ccc2c(C3CCN(C(CO)C4CCN(C(=O)/C=C/c5cc(F)c(F)c(F)c5)CC4)CC3)c[nH]c2c1` (centres unmarked) [Cpd 132, (2E)-1-(4-{2-hydroxy-1-[4-(6-methoxy-1H-indol-3-yl)-piperidin-1-yl]-ethyl}-piperidin-1-yl)-3-(3,4,5-trifluoro-phenyl)-propenone], the IC50 was 70 nM in the test with THP-1 cells [1] (setting [5]) and 3 nM in the test with THP-1 cells [2] (setting [6]).
As usually defined, the inhibition is the percentage by which the read-out fell short of the control. For `COc1ccc(C2CCN(C(CO)C3CCN(C(=O)c4cc5cc(Cl)ccc5o4)CC3)CC2)cc1` (centres unmarked) [Cpd 160, (5-chloro-benzofuran-2-yl)-(4-{2-hydroxy-1-[4-(4-methoxy-phenyl)-piperidin-1-yl]-ethyl}-piperidin-1-yl)-methanone], the inhibition at 25 µM on CCR2 (read-out: Inhibition of MCP-1 Binding, percent inhibition) was 56%; in the test on THP-1 cells [2] (Homo sapiens) it was 33%.
On to `COc1ccc2c(C3CCN(C(CO)C4CCN(C(=O)/C=C/c5cc(F)c(F)c(F)c5)CC4)CC3)c[nH]c2c1` (centres unmarked) [Cpd 167, (2E)-1-(4-{2-hydroxy-1-[4-(6-methoxy-1H-indol-3-yl)-piperidin-1-yl]-ethyl}-piperidin-1-yl)-3-(3,4,5-trifluoro-phenyl)-propenone], for which the IC50 in the test with THP-1 cells [1] (setting [5]) and in the test with THP-1 cells [2] (setting [6]) was 30 nM in each case.
On CCR2, `O=C(/C=C/c1cccc(C(F)(F)F)c1)N1CCC(C(CO)N2CCC(c3ccncc3)CC2)CC1` (centres unmarked) [Cpd 184, (2E)-1-{4-[2-hydroxy-1-(3,4,5,6-tetrahydro-2H-[4,4′]bipyridinyl-1-yl)-ethyl]-piperidin-1-yl}-3-(3-trifluoromethyl-phenyl)-propenone] gave a concentration for half-maximal inhibition (IC50) of 1600 nM. The inhibition at 25 µM in the test on THP-1 cells [2] (Homo sapiens) was found to be 14%.
Turning to `O=C(/C=C/c1ccc(Cl)c(Cl)c1)N1CCC(C(CO)N2CCC(c3c[nH]c4ncccc34)CC2)CC1` (centres unmarked) [Cpd 208, (2E)-3-(3,4-dichloro-phenyl)-1-(4-{2-hydroxy-1-[4-(1H-pyrrolo[2,3-b]pyridin-3-yl)-piperidin-1-yl]-ethyl}-piperidin-1-yl)-propenone], the IC50 with THP-1 cells [1] (Homo sapiens, THP-1, 3 h, THP-1 cells, MCP-1 0.01 μg/mL, 3 hours) turned out to be 13 nM; in the test with THP-1 cells [2] (setting [7]), 0.8 nM.
Turning to `CC(=O)NCC(C1CCN(C(=O)/C=C/c2cccc(C(F)(F)F)c2)CC1)N1CCC(c2c[nH]c3ccccc23)CC1` (centres unmarked) [Cpd 218], the half-inhibitory concentration (IC50) is 370 nM against CCR2 and 1900 nM in the test with THP-1 cells [2] (setting [3]).
On to `CC(=O)NCC(C1CCN(C(=O)/C=C/c2ccsc2)CC1)N1CCC(c2c[nH]c3ccccc23)CC1` (centres unmarked) [Cpd 219], for which the IC50 on CCR2 was found to be 340 nM. Also, the inhibition at 25 µM with THP-1 cells [2] (Homo sapiens) came to 52%.
Consider `O=CNCC(C1CCN(C(=O)/C=C/c2cc(F)c(F)c(F)c2)CC1)N1CCC(c2c[nH]c3ccccc23)CC1` (centres unmarked) [Cpd 220], for which the IC50 came out at 440 nM on CCR2 and 960 nM in the test with THP-1 cells [2] (setting [3]).
Turning to `NC(=O)C(C1CCN(C(=O)/C=C/c2cc(F)c(F)c(F)c2)CC1)N1CCC(c2c[nH]c3ncccc23)CC1` (centres unmarked) [Cpd 227, 2-[4-(1H-pyrrolo[2,3-b]pyridin-3-yl)-piperidin-1-yl]-2-{1-[(2E)-3-(3,4,5-trifluoro-phenyl)-acryloyl]-piperidin-4-yl}-acetamide], the IC50 at CCR2 (Inhibition of MCP-1 Binding IC50, 125I labeled MCP-1 binding to CCR2, THP-1 cells) came out at 960 nM; in the test with THP-1 cells [2] (setting [7]), 870 nM.
Regarding `CCNC(=O)NCC(C1CCN(C(=O)/C=C/c2ccc(F)c(Br)c2)CC1)N1CCC(c2c[nH]c3ccccc23)CC1` (centres unmarked) [Cpd 233], the IC50 at CCR2 was 660 nM; in the test on THP-1 cells [2] (setting [3]) it was 1800 nM.
With `O=C(C=Cc1ccc(Cl)c(Cl)c1)N1CCC(C(CO)N2CCC(c3ccc(Cl)cc3)CC2)CC1` (centres unmarked) [Cpd 244, (2E)-1-(4-{1-[4-(4-chloro-phenyl)-piperidin-1-yl]-2-hydroxy-ethyl}-piperidin-1-yl)-3-(3,4-dichloro-phenyl)-propenone], the IC50 on CCR2 was 260 nM; with THP-1 cells [2] (setting [3]), 80 nM.
For the compound `O=C(/C=C/c1ccc(Cl)c(Cl)c1)N1CCC(C(CCl)N2CCC(c3ccc(Cl)cc3)CC2)CC1` (centres unmarked) [Cpd 245], the values for the half-maximal inhibitory concentration (IC50) against CCR2 and in the test on THP-1 cells [2] (setting [3]) were 2170 nM and 400 nM, respectively.
On to `O=C(C=Cc1cc(F)c(F)c(F)c1)N1CCC(C(CO)N2CCC(c3ccc(Cl)cc3)CC2)CC1` (centres unmarked) [Cpd 246, (2E)-1-(4-{1-[4-(4-chloro-phenyl)-piperidin-1-yl]-2-hydroxy-ethyl}-piperidin-1-yl)-3-(3,4,5-trifluoro-phenyl)-propenone], for which the figures for the IC50 against CCR2 and in the test on THP-1 cells [2] (setting [3]) were 70 nM and 20 nM, respectively.
Turning to `COc1ccc(C2CCN(C(CO)C3CCN(C(=O)C#Cc4cc(F)c(F)c(F)c4)CC3)CC2)cc1` (centres unmarked) [Cpd 253, 1-(4-{2-hydroxy-1-[4-(4-methoxy-phenyl)-piperidin-1-yl]-ethyl}-piperidin-1-yl)-3-(3,4,5-trifluoro-phenyl)-propynone], the “Inhibition of MCP-1 Binding, percent inhibition” value on CCR2 is reported as 42%. In the test with THP-1 cells [2] (setting [6]), the IC50 is 3900 nM.
The corresponding values for `O=C(/C=C/c1cc(F)cc(F)c1)N1CCC(C(CO)N2CCC(c3nc4cc(Cl)c(Cl)cc4[nH]3)CC2)CC1` (centres unmarked) [Cpd 256, (2E)-1-(4-{1-[4-(5,6-dichloro-1H-benzoimidazol-2-yl)-piperidin-1-yl]-2-hydroxy-ethyl}-piperidin-1-yl)-3-(3,5-difluoro-phenyl)-propenone] are 25% and 11000 nM.
Take `O=C(/C=C/c1ccc(Cl)cc1)N1CCC(C(CO)N2CCC(c3ccc(Cl)cc3)CC2)CC1` (centres unmarked) [Cpd 258, (2E)-3-(4-chloro-phenyl)-1-(4-{1-[4-(4-chloro-phenyl)-piperidin-1-yl]-2-hydroxy-ethyl}-piperidin-1-yl)-propenone]: the IC50 against CCR2 came out at 200 nM; in the test with THP-1 cells [2] (setting [3]) it was 2300 nM.
